# Results published in patent US10238688B2, “Combination therapies for bladder cancer” (GENEDIA BIOTECH CO. LTD., priority 2015, dated 2019).
# Tests used:
# Format in all cases: cell-based, human
# [1] = tested on: 5637; test: MTT cell survival / IC50, 5637 cells
# Procedure: (§1) The clinical grade of the chemotherapeutics (NCI Dictionary of Cancer Terms) was provided by the First Affiliated Hospital of Harbin Medical University: Pirarubicin (Pi, Wanle, Shenzhen), Paclitaxel (Pa, Taiji, Sichuan), Adriamycin (Ad, Pfizer, Jiangsu), Epirubicin Hydrochloride (EH, Haizheng, Zhejiang), Hydroxycamptothecin (Hy, Lishizhen, Hubei), Cisplatin (Ci, Haosen, Jiangsu), Gemcitabine (Ge, Haosen, Jiangsu) and Mitomycin (Mi, Haizheng, Zhejiang). The drug induced cell death was determined by a thiazolyl […] (MTT, 490 nm reading) based cell proliferation assay in the cultured cells following treatment by various concentrations of drugs for 72 hours. The relative chemoresistance to each drug of all cell lines was calculated with the lowest IC50 as a reference. The overall chemoresistance of each cell line was described as “chemoresistance index”, the numerator of the total relative IC50 to all the drugs over the number of drugs to rank the overall resistance state of each cell line to the six chemotherapeutics collectively.
# (§2) The relative IC50 (fold) of each drug of all nine cell lines was normalized to the lowest IC50 in the most sensitive cell line (FIG. 2G), to describe the single drug resistance of cell lines. The overall chemoresistance of each cell line, a “chemoresistance index” (the numerator of the total relative IC50 over the number of drugs) (FIG. 2G) were calculated to rank the overall resistance state of each cell line to this six chemotherapeutics.
# (§3) Twenty six-drug combinations at the indicated doses were initially generated through a random number generator (using MATLAB MathWorks©, Natick, Mass., U.S.) (The upper half of Table 1). The cell survival (% over the not drug control) of treated cells was determined and then used for a calculation of the average cumulative cell survival (%, ACS: the sum of cell survival (%) per combination divided by the number of cell lines tested). ACS<30% was used to separate the effective from the not-effective combinations.
# [2] = tested on: J-82; test: MTT cell survival / IC50, J-82 cells; conditions: J82; Table S3; ng/ml: Pi 40, Pa 160, EH 250, Ci 1500, Mi 200; 1=Ci/Mi, 2=EH/Ci/Mi, 3=Pa/Ci/Mi, 4=Pi/Ci/Mi
# Procedure: as §1, §2, §3
# [3] = tested on: ER Stress pathway; test: Cignal Finder dual-luciferase pathway reporter, ER Stress; conditions: for Relative activity, ER Stress reporter: luc/Renluc relative to negative control reporter, single drug at 4 folds vs EH/Ci/Mi combination
# Procedure: (§4) The pathway analysis was performed with Qiagen's Cignal Finder Pathway Reporter Array systems according to the manufacturer's instructions. The pathway-focused dual-luciferase reporter construct was a mixture of an inducible transcription factor responsive firefly luciferase reporter and constitutively expressing renilla construct. Transcriptional response element (TRE) sequence response elements to each specific transcriptional factor triggered by the different signaling pathways are positioned before the TATA box of firefly luciferase reporter gene. The extent of activity of the reporter reflects the level of activity of the particular signaling pathway. CMV controlled renilla expression vector is co-transfected into the cell as an internal control. Non-inducible reporter construct that lacks the transcriptional factor binding sequence and could not be induced by any transcription factors is used as a negative control. Cells transfected with CMV directed firefly luciferase reporter gene serve as a positive control. Briefly, cells seeded in 6-well plates were transfected with Cignal finder pathway arrays according to the manufacturer's instructions (Qiagen). Then cells were seeded onto 96-well plates. Ci (6000 ng/mL), Mi (800 ng/mL), or EH (1000 ng/mL) and Ci/Mi/EH combination (Ci, 1500 ng/mL, Mi, 800 ng/mL and EH, 1000 ng/m L) were then added to the cells 24 h post-transfection. After 6 h of incubation with the different drugs at 37° C., cells were lysed and a dual luciferase assay (for firefly and renilla luciferase) was performed using a PromegaGloMax 20/20 illuminometer. The firefly luciferase activities were normalized over the renilla luciferase activities after background activity determined by luciferase activities of negative controls was subtracted. A triple test of cell survival under these drug doses was also performed by MTT assay following 18 h incubation at 37° C. […]
# [4] = tested on: Wnt pathway; test: Cignal Finder dual-luciferase pathway reporter, Wnt; set-up: key to Relative activity, Wnt reporter: firefly/renilla ratio, background (negative control) subtracted; conditions: for Relative activity, Wnt reporter: luc/Renluc relative to negative control reporter, single drug at 4 folds vs EH/Ci/Mi combination;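 as to digitalized pathway activity, Wnt: code −1 means repressed below 0.5-fold of 5637 cells or no-drug control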
# Procedure: as §4
# [5] = tested on: Notch pathway; test: Cignal Finder dual-luciferase pathway reporter, Notch; set-up: key to Relative activity, Notch reporter: firefly/renilla ratio, background (negative control) subtracted; conditions: for Relative activity, Notch reporter: luc/Renluc relative to negative control reporter, single drug at 4 folds vs EH/Ci/Mi combination;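 as to digitalized pathway activity, Notch: code −1 means repressed below 0.5-fold of 5637 cells or no-drug control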
# Procedure: as §4
compound,measurement,setting,value
"COC12C(COC(N)=O)C3=C(C(=O)C(C)=C(N)C3=O)N1CC1NC12 (centres unmarked) [Mi, [6-Amino-8a-methoxy-5-methyl-4,7-dioxo-1,1a,2,4,7,8,8a,8b-octahydroazireno [2′,3′:3,4]pyrrolo[1,2-a]indol-8-yl]methyl carbamate]",Cell survival (%),"[1]; 5637, Table S3, ng/ml: Pi 40, Pa 160, EH 250, Ci 1500, Mi 200, 1=Ci/Mi, 2=EH/Ci/Mi, 3=Pa/Ci/Mi, 4=Pi/Ci/Mi",53.16%
same,Single drug 4X Cell Survival (%),"[1]; 5637, ng/ml: EH 1000, Ci 6000, Mi 800, Pi 160, Pa 640, Ge 20, EH/Ci/Mi regimen",35.46%
same,Cell survival 72 hours,"[1]; 5637 cells, Table 4 (A)",35.46%
same,ACS (%),"[1]; 5637 cells, Table 4 (B)",35.46%
same,Cell survival (%),[2],48.38%
same,"relative drug trigged pathway activity over the no-drug level, ER Stress",[3]; 5637 cells,3.2 fold
same,"Relative activity, ER Stress reporter",[3]; 5637 cells,83.09
same,"relative drug trigged pathway activity over the no-drug level, ER Stress",[3]; Biu87 cells,1.65 fold
same,"Relative activity, ER Stress reporter",[3]; Biu87 cells,36.14
same,"relative drug trigged pathway activity over the no-drug level, ER Stress",[3]; H-bc cells,1.97 fold
same,"Relative activity, ER Stress reporter",[3]; H-bc cells,44.48
same,"relative drug trigged pathway activity over the no-drug level, ER Stress",[3]; SV-HUC-1 cells,1.51 fold
same,"Relative activity, ER Stress reporter",[3]; SV-HUC-1 cells,155.20
same,"Relative activity, ER Stress reporter",[3]; UM-UC-3 cells,109.59
same,"relative drug trigged pathway activity over the no-drug level, ER Stress",[3]; Um-Uc-3 cells,1.34 fold
same,"relative drug trigged pathway activity over the no-drug level, Wnt",[4]; 5637 cells,1.87 fold
same,"Relative activity, Wnt reporter",[4]; 5637 cells,1.63
same,"digitalized pathway activity, Wnt",[4]; Biu87 cells,0 (null (0) if neither of the above holds)
same,"relative drug trigged pathway activity over the no-drug level, Wnt",[4]; Biu87 cells,1.06 fold
same,"Relative activity, Wnt reporter",[4]; Biu87 cells,1.77
same,"digitalized pathway activity, Wnt",[4]; H-bc cells,0 (null (0) if neither of the above holds)
same,"relative drug trigged pathway activity over the no-drug level, Wnt",[4]; H-bc cells,0.55 fold
same,"Relative activity, Wnt reporter",[4]; H-bc cells,0.60
same,"digitalized pathway activity, Wnt",[4]; SV-HUC-1 cells,0 (null (0) if neither of the above holds)
same,"relative drug trigged pathway activity over the no-drug level, Wnt",[4]; SV-HUC-1 cells,1.29 fold
same,"Relative activity, Wnt reporter",[4]; SV-HUC-1 cells,1.60
same,"digitalized pathway activity, Wnt",[4]; UM-UC-3 cells,0 (null (0) if neither of the above holds)
same,"Relative activity, Wnt reporter",[4]; UM-UC-3 cells,4.06
same,"relative drug trigged pathway activity over the no-drug level, Wnt",[4]; Um-Uc-3 cells,1.13 fold
same,"relative drug trigged pathway activity over the no-drug level, Notch",[5]; 5637 cells,2.2 fold
same,"Relative activity, Notch reporter",[5]; 5637 cells,2.23
same,"digitalized pathway activity, Notch",[5]; Biu87 cells,0 (null (0) if neither of the above holds)
same,"relative drug trigged pathway activity over the no-drug level, Notch",[5]; Biu87 cells,1.45 fold
same,"Relative activity, Notch reporter",[5]; Biu87 cells,6.42
same,"relative drug trigged pathway activity over the no-drug level, Notch",[5]; H-bc cells,0.42 fold
same,"Relative activity, Notch reporter",[5]; H-bc cells,0.59
same,"digitalized pathway activity, Notch",[5]; SV-HUC-1 cells,0 (null (0) if neither of the above holds)
same,"relative drug trigged pathway activity over the no-drug level, Notch",[5]; SV-HUC-1 cells,0.95 fold
same,"Relative activity, Notch reporter",[5]; SV-HUC-1 cells,4.10
same,"Relative activity, Notch reporter",[5]; UM-UC-3 cells,7.40
same,"relative drug trigged pathway activity over the no-drug level, Notch",[5]; Um-Uc-3 cells,1.5 fold
